The values below come from PMC7997635 (Journal of medicinal chemistry, 2021).

For data set [1], the system named is P. falciparum NF54-luc. Briefly: Bioluminescence relative rate of kill. In kind it is cell-based, Plasmodium falciparum. Particulars: 6 h exposure, 30× to […] EC50, compared with benchmarks.
Data set [2] has as its system conversion of hematin (Fe(III)PPIX) to β-hematin. In kind it is biochemical. As to conditions: pH 4.8 acetate, NP-40, 37 °C, 5 h; for IC50: read-out: IC50 for inhibition of βH formation.
Data set [3] can be described thus: Solubility in NP-40/DMSO buffer of the heme biomineralization assay. Type of data set: physicochemical.
Data set [4] deals with P. falciparum. Particulars: previously characterized with the standard PRR assay ref 34; cited from earlier work.
Data set [5] concerns Hz formation in NF54 parasites. The data set can be described thus: Cellular heme fractionation assay. Type of data set: cell-based. Particulars: Plasmodium falciparum, NF54, 32 h, read-out: EC50 (heme), drug concentration giving 50% response of 'free' heme Fe.
Data set [6] relates to PfNF54 parasites. The data set can be described thus: Parasite survival concentration response. Type of data set: cell-based. Particulars: Plasmodium falciparum, read-out: EC50 (survival), parasite survival.
Data set [7] deals with P. falciparum 3D7. The data set can be described thus: SYBR Green parasite growth inhibition assay, 72 h. In kind it is cell-based. Particulars: Plasmodium falciparum, 3D7, 72 h, read-out: P. falciparum EC50 Pf3D7, 72 h SYBR Green assay, ABS parasites; mean ± std dev (n) or individual replicates.
The nature of data set [8]: Kinetic solubility in pH 2.0 and pH 6.5 buffers. Type of data set: physicochemical.
Data set [9] deals with P. berghei liver stage (Pb-Luc sporozoites in HepG2-A16-CD81EGFP cells). Briefly: P. berghei liver stage assay. Type of data set: cell-based, Plasmodium berghei. As to conditions: for EC50: read-out: Pb liver stage EC50, two independent replicates.
The nature of data set [10]: HepG2tox assay run with the liver stage assay. As to conditions: human, HepG2 cells, HepG2 CC50 (life cycle profiling), two independent replicates. Type of data set: cell-based, human.
In data set [11] the test system is HepG2. The data set can be described thus: HepG2tox assay run with the liver stage assay. Type of data set: cell-based, human. As to conditions: read-out: HepG2 CC50 (life cycle profiling); two independent replicates.
The nature of data set [12]: HepG2 in vitro cytotoxicity. In kind it is cell-based. Particulars: human, HepG2 cells.
Data set [13] relates to P. falciparum. Briefly: PRR drug washout kill rate assay. Type of data set: cell-based, Plasmodium falciparum. Particulars: 10× EC50, 24 or 48 h.
Data set [14] relates to P. falciparum 3D7. The data set can be described thus: Two-color flow cytometry kill rate assay. In kind it is cell-based, Plasmodium falciparum. Particulars: 10× EC50, 24 or 48 h.
Data set [15] relates to P. falciparum Dd2. The data set can be described thus: SYBR Green parasite growth inhibition assay, 72 h. Type of data set: cell-based, Plasmodium falciparum.
The subject of data set [16] is male stage V gametocytes. Briefly: Dual gamete formation assay. In kind it is cell-based. Particulars: Plasmodium falciparum, read-out: DGFA male gametocytes inhibition.
The test system of data set [17] is P. falciparum 3D7. Briefly: 48 h 3H-hypoxanthine incorporation assay. In kind it is cell-based. Particulars: Plasmodium falciparum, 3D7, 48 h, read-out: EC50, 48 h hypoxanthine assay.
[18] abbreviates: phosphate buffered saline pH 6.5, pH 6.5.

≈ marks a conversion by molar mass, not a printed value.

`COc1ccc(Br)cc1CN(C)C(c1ccccc1)c1nnnn1-c1ccccc1C` (racemic) [Compound 3, N-(5-bromo-2-methoxybenzyl)-N-methyl-1-phenyl-1-(1-(o-tolyl)-1H-tetrazol-5-yl)methenamine]: the “rate of kill profile in BRRoK assay” value in [1] is recorded as “fast kill mechanism”. Further, the “inhibition of βH formation (in words)” value in data set [2] is “nearly inactive”. The same compound came in with a solubility in [3] not below 2000 µM.

For `O[C@@H](c1cc(C(F)(F)F)nc2c(C(F)(F)F)cccc12)[C@H]1CCCCN1` (racemic) [MFQ, mefloquine, reference compound], the IC50 in [2] is not above 100000 nM.

As for `C[C@@H]1CC[C@H]2[C@@H](C)C(=O)O[C@@H]3O[C@@]4(C)CC[C@@H]1[C@]32OO4` [ART, artemisinin], the “rate of kill class of benchmark compound” value in [4] is listed as “fast-kill”.

With `O=C1C(O)=C([C@H]2CC[C@H](c3ccc(Cl)cc3)CC2)C(=O)c2ccccc21` [ATQ, atovaquone], the “rate of kill class of benchmark compound” value in data set [4] was “slow-kill”.

Turning to `CCN(CC)CCCC(C)Nc1ccnc2cc(Cl)ccc12` (stereo not drawn) [CQ, chloroquine], the EC50 turned out to be 58 nM in data set [5] and 15 nM in data set [6]. For the same compound, the “rate of kill class of benchmark compound” value in [4] was “fast-kill”.

`CCC(C(=O)Nc1cccc(Cl)c1)N1C(=O)C(C)N=C(c2ccccc2)c2ccccc21` (stereo not drawn) [Compound 1, N-(3-Chlorophenyl)-2-(3-methyl-2-oxo-5-phenyl-2,3-dihydro-1H-benzo[e][1,4]diazepin-1-yl)butanamide]: the “rate of kill profile in BRRoK assay” value in data set [1] is recorded as “slow kill kinetics”.

Take `CC(=O)c1ccc(NC(=O)c2ccc(NC(=O)C3COc4ccccc4O3)cc2)cc1` (stereo not drawn) [Compound 2, N-(4-((4-Acetylphenyl)carbamoyl)phenyl)-2,3-dihydrobenzo[b][1,4]dioxine-2-carboxamide]: the “rate of kill profile in BRRoK assay” value in [1] was “slow kill kinetics”.

On to `COc1ccc(C(F)(F)F)cc1CN(C)C(c1cccnc1)c1nnnn1-c1ccccc1C` (stereo not drawn) [Compound 6, N-(2-methoxy-5-(trifluoromethyl)benzyl)-N-methyl-1-(pyridin-3-yl)-1-(1-(o-tolyl)-1H-tetrazol-5-yl)methenamine], for which, in [7], the EC50 is approximately 1000 nM.

As for `COc1ccc(C(F)(F)F)cc1CN(C1CC1)C(c1cccnc1)c1nnnn1-c1ccccc1C` (stereo not drawn) [Compound 7, N-(2-methoxy-5-(trifluoromethyl)benzyl)-N-(pyridin-3-yl(1-(o-tolyl)-1H-tetrazol-5-yl)methyl)cyclopropanamine], the solubility (kinetic) lay in the range of 12.5 to 25 µg/mL (≈ 25.3 to 50.6 µM) in data set [8] (pH 2.0 buffer, pH 2) and 1.6 to 3.1 µg/mL (≈ 3.24 to 6.27 µM) in [8] (setting [18]).

As for `Cc1ccccc1-n1nnnc1C(c1cccnc1)N(Cc1cccc(C(F)(F)F)c1)C1CC1` (stereo not drawn) [Compound 9, N-(Pyridin-3-yl(1-(o-tolyl)-1H-tetrazol-5-yl)methyl)-N-(3-(trifluoromethyl)benzyl) cyclopropanamine], the solubility (kinetic) in data set [8] (pH 2.0 buffer, pH 2) was 12 to 23 µg/mL (≈ 25.8 to 49.5 µM); in [8] (setting [18]) it was 1.5 to 2.9 µg/mL (≈ 3.23 to 6.24 µM). For the same compound, the EC50 in [9] was 12000 nM. In addition, the “inhibition of βH formation (in words)” value in [2] is on record as “inhibited βH formation with the same potency as MFQ”. In addition, the 50% cytotoxic concentration (CC50) in data set [10] was 19000 nM; in data set [11], more than 17000 nM. Also, the solubility in data set [3] was not below 2000 µM.

As for `Cc1ccccc1-n1nnnc1C(c1cncnc1)N(Cc1cccc(C(F)(F)F)c1)C1CC1` (stereo not drawn) [Compound 10, N-(Pyrimidin-5-yl(1-(o-tolyl)-1H-tetrazol-5-yl)methyl)-N-(3-(trifluoromethyl)benzyl)cyclopropanamine], the EC50 in data set [5] came out at 1040 nM; in [7], 320 nM. In data set [12], this compound came in with a 50% cytotoxic concentration (CC50) at 72 h of more than 30000 nM. Moreover, the “rate of kill profile in BRRoK assay” value in data set [1] is recorded as “fast kill kinetics”. Also, the “kill kinetics in PRR washout assay” value in data set [13] was “kill kinetics similar to CQ, though slower than ART”. Further, the kinetic solubility lay in the range of 1.5 to 2.9 µg/mL (≈ 3.22 to 6.23 µM) in [8] (pH 2.0 buffer, pH 2) and 1.5 to 2.9 µg/mL (≈ 3.22 to 6.23 µM) in [8] (setting [18]). For the same compound, the “inhibition of βH formation (in words)” value in data set [2] is reported as “weaker inhibition”. For the same compound, the “kill kinetics in two-color FACS assay” value in [14] is “kill kinetics similar to CQ, though slower than ART”. In addition, the solubility in [3] is not below 2000 µM.

With `CCCN(C(c1cncnc1)c1nnnn1-c1ccccc1C)C1(c2cccc(C(F)(F)F)c2)CC1` (stereo not drawn) [Compound 20, N-Propyl-N-(pyrimidin-5-yl(1-(o-tolyl)-1H-tetrazol-5-yl)methyl)-1-(3-(trifluoromethyl)phenyl)cyclopropan-1-amine], the selectivity ratio at 72 h in data set [12] was in the range of 40 to 50.

For the compound `CCCN(C(c1cccnc1)c1nnnn1-c1ccccc1C)C1(c2cccc(C(F)(F)F)c2)CC1` (stereo not drawn) [Compound 21, N-Propyl-N-(pyridin-3-yl(1-(o-tolyl)-1H-tetrazol-5-yl)methyl)-1-(3-(trifluoromethyl)phenyl)cyclopropan-1-amine], the EC50 in data set [7] is approximately 300 nM. Besides, the selectivity ratio at 72 h in [12] lay in the range of 40 to 50.

Compound `Cc1ccccc1N(C)C(=O)C(c1cccnc1)N(Cc1cccc(C(F)(F)F)c1)C1CC1` (stereo not drawn) [Compound 22, 2-(Cyclopropyl(3-(trifluoromethyl)benzyl)amino)-N-methyl-2-(pyridin-3-yl)-N-(o-tolyl)acetamide] showed a solubility (kinetic) in [8] (setting [18]) of 6.3 to 12.5 µg/mL (≈ 13.9 to 27.6 µM).

Turning to `Cc1ccccc1N(C)C(=O)C(c1cncnc1)N(Cc1cccc(C(F)(F)F)c1)C1CC1` (stereo not drawn) [Compound 23, 2-(Cyclopropyl(3-(trifluoromethyl)benzyl)amino)-N-methyl-2-(pyrimidin-5-yl)-N-(o-tolyl)acetamide], in [1], the “rate of kill profile in BRRoK assay” value is “fast kill kinetics”. This compound registered a solubility (kinetic) in data set [8] (pH 2.0 buffer, pH 2) of 11 to 23 µg/mL (≈ 24.2 to 50.6 µM).

As for `Cc1ccccc1N(C)C(=O)C(c1cccnc1)N(Cc1cccc(OC(F)(F)F)c1)C1CC1` (stereo not drawn) [Compound 26, 2-(Cyclopropyl(3-(trifluoromethoxy)benzyl)amino)-N-methyl-2-(pyridin-3-yl)-N-(o-tolyl)acetamide], the “Fold Diff in EC50, Dd2 relative to 3D7” value in [15] is on record as 3–5 fold.

On to `Cc1ccccc1N(C)C(=O)C(c1cncnc1)N(Cc1cccc(OC(F)(F)F)c1)C1CC1` (stereo not drawn) [Compound 27, 2-(Cyclopropyl(3-(trifluoromethoxy)benzyl)amino)-N-methyl-2-(pyrimidin-5-yl)-N-(o-tolyl)acetamide], for which, in [15], the “Fold Diff in EC50, Dd2 relative to 3D7” value is listed as 1.4 – 3.0 fold.

Take `Cc1ccccc1N(C)C(=O)C(c1cccnc1)N(Cc1cc(C(F)(F)F)ccc1F)C1CC1` (stereo not drawn) [Compound 32, 2-(Cyclopropyl(2-fluoro-5-(trifluoromethyl)benzyl)amino)-N-methyl-2-(pyridin-3-yl)-N-(o-tolyl)acetamide]: in [8] (setting [18]), the kinetic solubility lay in the range of 1.5 to 2.9 µg/mL (≈ 3.18 to 6.15 µM). Further, in data set [9] (fold higher), the “Pb liver stage EC50 relative to P. falciparum blood stage EC50” value was in the range of 20 to 30 fold. In [9], the EC50 worked out at 16000 nM. Further, the inhibition at 25 µM in data set [16] is approximately 60%. The compound also registered a half-maximal cytotoxic concentration (CC50) in data set [10] of 24000 nM.

Consider `O=C(C(c1cccnc1)N(Cc1cccc(C(F)(F)F)c1)C1CC1)N1CCCCC1` (stereo not drawn) [Compound 34, 2-(Cyclopropyl(3-(trifluoromethyl)benzyl)amino)-1-(piperidin-1-yl)-2-(pyridin-3-yl)ethan-1-one], for which the kinetic solubility in data set [8] (setting [18]) lay within 25 to 50 µg/mL (≈ 59.9 to 120 µM).

`Cc1cc(Nc2ccc(S(F)(F)(F)(F)F)cc2)n2nc(C(C)(F)F)nc2n1` [DSM265]: the “rate of kill class of benchmark compound” value in data set [4] is “slow-kill”.

For the compound `CCc1nc(N)nc(N)c1-c1ccc(Cl)cc1` [PYR, pyrimethamine], the figures for the EC50 in [5], in data set [6] and in data set [17] were more than 100 nM, 33 nM and 94 nM, respectively.

Take `CCN(CC)Cc1cc(Nc2ccnc3cc(Cl)ccc23)ccc1O` [amodiaquine, reference compound]: the IC50 in [2] is not above 100000 nM.

With `COc1ccc2nc3cc(Cl)ccc3c(Nc3cc(CN4CCCC4)c(O)c(CN4CCCC4)c3)c2n1` [pyronaridine, reference compound], the IC50 in data set [2] was not above 100000 nM.
